Measurements reported in PubChem BioAssay AID1259407 (Chemical Carcinogenesis Research Information System (CCRIS), 2018).
The source made the active and inactive calls. How the calls were made is not given here.

System: CCRIS mutagenicity, Ames/micronucleus/aberration tests
Experiment: CCRIS mutagenicity studies
[1] = Test System: AMES SALMONELLA TYPHIMURIUM, Strain/Indicator: TA98, Metabolic Activation: NONE, Method: STANDARD PLATE
[2] = Test System: AMES SALMONELLA TYPHIMURIUM, Strain/Indicator: TA98, Metabolic Activation: RAT, LIVER, S-9, AROCLOR 1254, Method: STANDARD PLATE
[3] = Test System: AMES SALMONELLA TYPHIMURIUM, Strain/Indicator: TA100, Metabolic Activation: NONE, Method: STANDARD PLATE
[4] = Test System: AMES SALMONELLA TYPHIMURIUM, Strain/Indicator: TA100, Metabolic Activation: RAT, LIVER, S-9, AROCLOR 1254, Method: STANDARD PLATE
[5] = Test System: AMES SALMONELLA TYPHIMURIUM, Strain/Indicator: TA1535, Metabolic Activation: NONE, Method: STANDARD PLATE
[6] = Test System: AMES SALMONELLA TYPHIMURIUM, Strain/Indicator: TA1537, Metabolic Activation: NONE, Method: STANDARD PLATE
[7] = Test System: AMES SALMONELLA TYPHIMURIUM, Strain/Indicator: TA1538, Metabolic Activation: NONE, Method: STANDARD PLATE

O=C1c2cccc(O)c2C(=O)c2c(O)cccc21 was tested, and the mutagenic call [1] was “inactive; negative”, the mutagenic call [2] was “inactive; negative” and the mutagenic call [3] was “inactive; negative”. For the same compound, the mutagenic call [4] was “inactive; negative”, the mutagenic call (Test System: AMES SALMONELLA TYPHIMURIUM, Strain/Indicator: TA102, Metabolic Activation: NONE, Method: PREINCUBATION) was “active; positive” and the mutagenic call (Test System: AMES SALMONELLA TYPHIMURIUM, Strain/Indicator: TA102, Metabolic Activation: NONE, Method: STANDARD PLATE) was “inactive; negative”. For the same compound, the mutagenic call (Test System: AMES SALMONELLA TYPHIMURIUM, Strain/Indicator: TA102, Metabolic Activation: RAT LIVER S-9, AROCLOR 1254, Method: STANDARD PLATE) was “active; positive”, the mutagenic call (Test System: AMES SALMONELLA TYPHIMURIUM, Strain/Indicator: TA102, Metabolic Activation: RAT, LIVER, S-9, AROCLOR 1254, Method: STANDARD PLATE) was “active; positive” and the mutagenic call (Test System: AMES SALMONELLA TYPHIMURIUM, Strain/Indicator: TA102, Metabolic Activation: RAT, LIVER, S-9, PHENOBARBITONE AND BETA-NAPHTHOFLAVONE, Method: STANDARD PLATE) was “active; positive”. The mutagenic call (Test System: AMES SALMONELLA TYPHIMURIUM, Strain/Indicator: TA102, Metabolic Activation: RAT, LIVER, S-9, Method: PREINCUBATION) was “active; positive”, the mutagenic call (Test System: AMES SALMONELLA TYPHIMURIUM, Strain/Indicator: TA102, Metabolic Activation: S-9, Method: STANDARD PLATE) was “active; positive” and the mutagenic call [5] was “inactive; negative”. The mutagenic call (Test System: AMES SALMONELLA TYPHIMURIUM, Strain/Indicator: TA1535, Metabolic Activation: RAT, LIVER, S-9, AROCLOR 1254, Method: STANDARD PLATE) was “inactive; negative”, the mutagenic call (Test System: AMES SALMONELLA TYPHIMURIUM, Strain/Indicator: TA1537, Metabolic Activation: NONE, Method: PREINCUBATION) was “active; positive” and the mutagenic call [6] was “active; positive”. The mutagenic call (Test System: AMES SALMONELLA TYPHIMURIUM, Strain/Indicator: TA1537, Metabolic Activation: RAT, LIVER, S-9, AROCLOR 1254, Method: STANDARD PLATE) was “active; positive”, the mutagenic call (Test System: AMES SALMONELLA TYPHIMURIUM, Strain/Indicator: TA1537, Metabolic Activation: RAT, LIVER, S-9, Method: PREINCUBATION) was “active; positive” and the mutagenic call [7] was “inactive; negative”. For the same compound, the mutagenic call (Test System: AMES SALMONELLA TYPHIMURIUM, Strain/Indicator: TA1538, Metabolic Activation: RAT, LIVER, S-9, AROCLOR 1254, Method: STANDARD PLATE) was “inactive; negative”, the mutagenic call (Test System: AMES SALMONELLA TYPHIMURIUM, Strain/Indicator: TA2638, Metabolic Activation: S-9, Method: STANDARD PLATE) was “active; positive” and the mutagenic call (Test System: E. COLI, Strain/Indicator: WP2 (PKM101), Metabolic Activation: RAT, LIVER, S-9, PHENOBARBITONE AND BETA-NAPHTHOFLAVONE, Method: STANDARD PLATE) was “inactive; negative”. For the same compound, the mutagenic call (Test System: E. COLI, Strain/Indicator: WP2 (PKM101), Metabolic Activation: S-9, Method: STANDARD PLATE) was “inactive; negative”, the mutagenic call (Test System: E. COLI, Strain/Indicator: WP2 UVRA (PKM101), Metabolic Activation: RAT, LIVER, S-9, PHENOBARBITONE AND BETA-NAPHTHOFLAVONE, Method: STANDARD PLATE) was “inactive; negative” and the mutagenic call (Test System: E. COLI, Strain/Indicator: WP2 UVRA (PKM101), Metabolic Activation: S-9, Method: STANDARD PLATE) was “inactive; negative”.

With CCOC(=O)c1ccc(N(O)C=O)cc1 the mutagenic call [1] was “inactive; negative”, the mutagenic call [2] was “inactive; negative” and the mutagenic call [3] was “inactive; negative”. The mutagenic call [4] was “inactive; negative”.

CCN(CC)CCNc1ccc(C)c2sc3ccccc3c(=O)c12 was tested, and the mutagenic call [1] was “inactive; negative”, the mutagenic call (Test System: AMES SALMONELLA TYPHIMURIUM, Strain/Indicator: TA98, Metabolic Activation: RAT, LIVER, S-9, AROCLOR 1254 OR PHENOBARBITOL, Method: STANDARD PLATE) was “inactive; negative” and the mutagenic call [3] was “inactive; negative”. The mutagenic call (Test System: AMES SALMONELLA TYPHIMURIUM, Strain/Indicator: TA100, Metabolic Activation: RAT, LIVER, S-9, AROCLOR 1254 OR PHENOBARBITOL, Method: STANDARD PLATE) was “inactive; negative”, the mutagenic call [5] was “inactive; negative” and the mutagenic call (Test System: AMES SALMONELLA TYPHIMURIUM, Strain/Indicator: TA1535, Metabolic Activation: RAT, LIVER, S-9, AROCLOR 1254 OR PHENOBARBITOL, Method: STANDARD PLATE) was “active; positive”. For the same compound, the mutagenic call [6] was “active; positive”, the mutagenic call (Test System: AMES SALMONELLA TYPHIMURIUM, Strain/Indicator: TA1537, Metabolic Activation: RAT, LIVER, S-9, AROCLOR 1254 OR PHENOBARBITOL, Method: STANDARD PLATE) was “active; positive” and the mutagenic call [7] was “inactive; negative”. For the same compound, the mutagenic call (Test System: AMES SALMONELLA TYPHIMURIUM, Strain/Indicator: TA1538, Metabolic Activation: RAT, LIVER, S-9, AROCLOR 1254 OR PHENOBARBITOL, Method: STANDARD PLATE) was “inactive; negative” and the mutagenic call (Test System: MOUSE LYMPHOMA, Strain/Indicator: L5178Y (TK+/TK-), Metabolic Activation: NONE, Method: SUSPENSION/PLATE) was “active; positive”.

In the case of O=[N+]([O-])c1cc2c3c(c1)CCc1cccc(c1-3)CC2, the mutagenic call (Test System: AMES SALMONELLA TYPHIMURIUM, Strain/Indicator: TA98(1,8-DNP6), Metabolic Activation: NONE, Method: STANDARD PLATE) is reported as “active; positive”, the mutagenic call (Test System: AMES SALMONELLA TYPHIMURIUM, Strain/Indicator: TA98(NR), Metabolic Activation: NONE, Method: STANDARD PLATE) is reported as “active; positive” and the mutagenic call [1] is reported as “active; positive”.

For S=C=NCCc1ccccc1, the mutagenic call [1] was “inactive; negative”, the mutagenic call (Test System: AMES SALMONELLA TYPHIMURIUM, Strain/Indicator: TA98, Metabolic Activation: RAT LIVER S-9, AROCLOR 1254, Method: STANDARD PLATE) was “active; positive” and the mutagenic call [3] was “inactive; negative”. For the same compound, the mutagenic call (Test System: AMES SALMONELLA TYPHIMURIUM, Strain/Indicator: TA100, Metabolic Activation: RAT LIVER S-9, AROCLOR 1254, Method: STANDARD PLATE) was “inactive; negative”.
